Test results as given in publication PMC8875392, “Design and Characterization of Myristoylated and Non-Myristoylated Peptides Effective against Candida spp. Clinical Isolates” (International Journal of Molecular Sciences, 2022).
Converted amounts (≈) assume the structure as drawn. Where two headings read alike, the source gives them in different places. Where a SMILES comes first, the peptide text is derived from it. The star is where a group is joined. Myristoyl = CCCCCCCCCCCCCC(=O)*

Key:
[1] = Membrane partition, Trp-1 fluorescence upon titration with LUVs; type: binding; settings: for KX (mole fraction partition constant): peptide 1.0 μM, 20 mM phosphate pH 7.4, 150 mM NaCl, 0.8 mM EDTA, 298 K, Trp fluorescence, quadruplicate; for ΔG: ΔG = −RT lnKx; for Selectivity Ratio: ratio between partition constants in anionic (POPC/POPG) and zwitterionic (POPC) membranes
Experimental: To quantify the interaction of different lipidated and non-lipidated peptides with membrane mimetic systems, we measured the intrinsic fluorescence of Trp-1 upon partition with LUVs (large unilamellar vesicles) of different compositions. Briefly, the mixtures of POPC/POPG (70%/30% w/w) LUVs were used to mimic anionic membranes and POPC only to mimic zwitterionic membranes. […] The mole fraction partition constants Kx were calculated from the partition isotherms as previously described. Figure 2 reports the partition isotherms for the titration of myristoylated and non-myristoylated peptides with POPC and POPC/POPG vesicles.
The values of Kx for all peptides are reported in Table 2 together with ΔG values, calculated using the expression ΔG = −RT lnKx, and the selectivity ratio defined as the ratio between partition constants determined in anionic and zwitterionic membranes. Higher values of the selectivity ratio represent a preference of the peptide for anionic vesicles, while lower values indicate a preference for the zwitterionic one.
The lipids POPC (1-palmitoyl-2-oleoyl-sn-glycero-3-phosphocholine) and POPG (1-palmitoyl-2-oleoyl-sn-glycero-3-phosphoglycerol) were purchased from Avanti Polar Lipids (Alabaster, AL, USA) and used without further purification. LUVs (Large Unilamellar Vesicles) were prepared as previously reported. Briefly, appropriate amounts of lipids were dissolved in chloroform/methanol 9:1. The solvent was then removed by rotary evaporation and samples were placed overnight under a high vacuum. The lipid film was then hydrated by adding 1 mL of buffer (20 mM phosphate buffer at pH 7.4 with 150 mM NaCl and 0.8 mM EDTA) and then subjected to 5 freeze–thaw cycles and vortexed. The multilamellar vesicles (MLVS) were extruded through a polycarbonate membrane with pores of 100 nm by an Avanti polar mini extruder, and the obtained LUVs were used within 48 h of preparation. LUVs were composed of 100% POPC and a 70%/30% (w/w) combination of POPC/POPG. The final concentration of the lipid was 10 mM.
All the steady-state fluorescence measurements were carried out using a Perkin Elmer LS55 fluorescence spectrophotometer. All the experiments were conducted at 298 K in a thermostatic cell holder and in 20 mM phosphate buffer at pH 7.4 containing 0.8 mM EDTA and 150 mM NaCl unless otherwise specified.
Since all peptides contain tryptophan, fluorescence spectroscopy is an appropriate tool for studying these molecules. Peptide partitioning between buffer and lipid vesicles was monitored by measuring the increase in tryptophan fluorescence upon the addition of LUVs. Trp fluorescence spectra were recorded with λexc = 295 nm and scanning the emission between 305 and 400 nm. Measurements were carried out with a cross-oriented configuration of polarizers (polem = 0° and polexc = 90°). Briefly, a 1.0 μM solution of the peptide was titrated with LUVs of different compositions (POPC 100% and 70%/30% POPC/POPG) as previously described. The background effects of vesicles and buffer were subtracted from each spectrum. All the fluorescence emissions were corrected for dilution. Mole fraction partition coefficients Kx were calculated from the fraction of the partitioned peptide fp as previously described. The fraction of the partitioned peptide fp is given by the following equation [53] (6) fp=Kx[L]/[W]+Kx[L] where Kx is the mole fraction partition constant, and [L] and [W] are the molar concentrations of lipids and water, respectively.

[2] = system: C. parapsilosis clinical isolates; type: cell-based, Candida parapsilosis
Experimental: The antifungal activity of AMPs was determined against 50 clinical isolates, 10 for each of the following Candida species: C. albicans, C. tropicalis, C. glabrata, C. parapsilosis, and C. auris. The latter were derived from patients with positive blood cultures in four hospitals in India, with known resistance profiles to fluconazole, voriconazole, and echinocandins. Yeast cells were grown in Brain Heart Infusion (BHI) medium (Sigma-Aldrich, Gillingham, UK) for 16 h at 37 °C in a 150-rpm orbital shaker. Cells were then sub-inoculated in a fresh BHI medium and grown to an optical density (OD) of 0.3. The turbidity of the inoculum was adjusted to 0.5 McFarland and diluted 1:500 in RPMI 1640 broth, corresponding to around […].
Minimal inhibitory concentrations (MICs) were determined by Broth microdilution susceptibility tests, according to The Clinical and Laboratory Standards Institute (CLSI) international guidelines. A fungal suspension of 0.5 MacFarland was diluted 1:500 in RPMI 1640 broth and incubated in 96 multi-well plates containing AMPs at different concentrations ranging from 0.125 to 256 μg/mL. In this range of concentration, lipopeptides were completely soluble. […] The MIC90 represents the value at which ≥90% of the strains within a test population were inhibited.

[3] = system: rabbit erythrocytes
Experimental: The hemolytic assay was performed on rabbit erythrocytes (Rockland) maintained in Alsever’s solution (Innovative Research). Briefly, after the removal of Alsever’s solution, the erythrocytes were resuspended in PBS and counted in a hemocytometer. A suspension of 5,000,000 red blood cells was incubated with four dilutions (from 5 µm to 50 µm) of the six peptides in a 96-well microplate. As a negative control, erythrocytes were incubated without the peptides, while as a positive control, erythrocyte was added with triton 10% v/v. The plate was incubated at 37 °C for 2 h and subsequently centrifuged at 1200 rpm × 3 min to separate the pellet from the supernatant. The absorbance of the supernatant was measured at 492 nm. Each point was made in triplicate. The relative OD compared to the positive control defined the percentage of hemolysis [71]. Statistical analysis was performed using two-way ANOVA analysis followed by Bonferroni’s post-test.

[4] = system: Galleria mellonella larvae; experiment: In vivo peptide toxicity in Galleria mellonella model; settings: uninfected larvae, groups of ten, peptide 640 µg/mL, single injection, 30 °C
Experimental: Multidrug-resistant C. auris was chosen as a representative species for in vivo studies. […] Groups of ten G. mellonella larvae were infected with C. auris and treated with the Pep-B and Myr-B peptides at a concentration of 640 µg/mL (about 400 µM).
Ten larvae (250–320 mg each) were selected at random for each step in the procedure. Any larvae with darkening of the cuticle were discarded. The test compounds and yeast were injected into the hemocoel in water buffer through the last left proleg (Insumed 30G Pic, Italy, syringe volume 0.5 mL, needle size 30G). The larvae were incubated in the dark for 3 days, and mortality was recorded daily.
For the peptide efficacy experiment, ten larvae were injected into the last left proleg with a pre-determined infective dose of yeast and the dose of peptides at the same time in a final volume of 10 μL and incubated at 30 °C. Each step in the procedure included six groups of 10 larvae: C. auris-infected larvae (10^7 CFU), infected and treated larvae with peptide B (640 μg/mL), infected and treated larvae with peptide Myr-B (640 μg/mL), treated larvae with peptide B (640 μg/mL), treated larvae with peptide Myr-B (640 μg/mL), and vehicle-injected control (water). The mortality was recorded daily for 3 days.

[5] = isolate Candida parapsilosis 8, CLSI broth microdilution, RPMI 1640
[6] = isolate Candida parapsilosis 9, CLSI broth microdilution, RPMI 1640
[7] = isolate Candida parapsilosis 10, CLSI broth microdilution, RPMI 1640

KX (mole fraction partition constant) ([1]; POPC LUVs)	ΔG ([1]; POPC LUVs)	KX (mole fraction partition constant) ([1]; POPC/POPG 70%/30% LUVs)	ΔG ([1]; POPC/POPG LUVs)	MIC ([2]; clinical isolates, 16 h)	MIC90 ([2]; clinical isolates, 16 h)	MIC [2, 5]	MIC [2, 6]	MIC [2, 7]	Compound	Selectivity Ratio [1]	hemolysis ([3]; 5 µM)	Peptide toxicity, DAY 1 Dead [4]	Peptide toxicity, DAY 2 Dead [4]	Peptide toxicity, DAY 3 Dead [4]	hemolysis ([3]; 50 µM)
(1.03 ± 0.04) × 10^5	-6.831 kcal/mol	(4.3 ± 0.8) × 10^5	-7.684 kcal/mol	16 µg/mL (≈ 10.1 µM)	16 µg/mL (≈ 10.1 µM)	16 µg/mL (≈ 10.1 µM)	16 µg/mL (≈ 10.1 µM)	16 µg/mL (≈ 10.1 µM)	CCCCCCCCCCCCCC(=O)N[C@@H](Cc1c[nH]c2ccccc12)C(=O)N[C@@H](Cc1ccccc1)C(=O)NCC(=O)N[C@@H](CCCCN)C(=O)N[C@@H](CC(C)C)C(=O)N[C@@H](Cc1ccc(O)cc1)C(=O)N[C@@H](CCCNC(=N)N)C(=O)NCC(=O)N[C@H](C(=O)N[C@H](C(=O)N[C@@H](CCCCN)C(=O)O)[C@@H](C)O)[C@@H](C)CC [Myr-A] (Myristoyl-WFGKLYRGITK-OH; C-terminus assumed)	4.17	0.1%				
(4.9 ± 0.3) × 10^5	-7.753 kcal/mol	(1.2 ± 0.2) × 10^6	-8.293 kcal/mol	32 µg/mL (≈ 21.2 µM)	32 µg/mL (≈ 21.2 µM)	32 µg/mL (≈ 21.2 µM)	32 µg/mL (≈ 21.2 µM)	32 µg/mL (≈ 21.2 µM)	CCCCCCCCCCCCCC(=O)N[C@@H](Cc1c[nH]c2ccccc12)C(=O)N[C@H](C(=O)N[C@H](C(=O)N[C@@H](CCCCN)C(=O)N[C@@H](CCCCN)C(=O)N[C@H](C(=O)N[C@@H](CCCCN)C(=O)NCC(=O)N[C@@H](CC(C)C)C(=O)N[C@@H](CC(C)C)C(=O)N[C@@H](CCCCN)C(=O)O)C(C)C)C(C)C)C(C)C [Myr-C] (Myristoyl-WVVKKVKGLLK-OH; C-terminus assumed)	2.45					28.5%

Compound	KX (mole fraction partition constant) ([1]; POPC LUVs)	ΔG ([1]; POPC LUVs)	KX (mole fraction partition constant) ([1]; POPC/POPG 70%/30% LUVs)	ΔG ([1]; POPC/POPG LUVs)	MIC ([2]; clinical isolates, 16 h)	MIC90 ([2]; clinical isolates, 16 h)	MIC [2, 5]	MIC [2, 6]	MIC [2, 7]	Selectivity Ratio [1]	hemolysis ([3]; 5 µM)	Peptide toxicity, DAY 1 Dead [4]	Peptide toxicity, DAY 2 Dead [4]	Peptide toxicity, DAY 3 Dead [4]	hemolysis ([3]; 50 µM)
CCCCCCCCCCCCCC(=O)N[C@@H](Cc1c[nH]c2ccccc12)C(=O)N[C@@H](CCCNC(=N)N)C(=O)NCC(=O)N[C@H](C(=O)N[C@H](C(=O)N[C@@H](CCCCN)C(=O)N[C@H](C(=O)N[C@H](C(=O)N[C@@H](CCCCN)C(=O)N[C@@H](CCCCN)C(=O)N[C@H](C(=O)O)C(C)C)C(C)C)C(C)C)[C@@H](C)O)[C@@H](C)CC [Myr-B] (Myristoyl-WRGITKVVKKV-OH; C-terminus assumed)	(4.7 ± 0.6) × 10^5	-7.737 kcal/mol	(1.7 ± 0.2) × 10^6	-8.499 kcal/mol	32 µg/mL (≈ 21 µM)	32 µg/mL (≈ 21 µM)	32 µg/mL (≈ 21 µM)	32 µg/mL (≈ 21 µM)	32 µg/mL (≈ 21 µM)	3.62		1	1	1	
